In patent publication US6274715A, “Tricyclic erythromycin derivatives” (priority 1997, dated 2001):
≈ marks a conversion by molar mass, not a printed value. Read-outs that look alike come from different tables or passages of the source.

Assays:
Assay type in all cases: cell-based
[1] = system: STAPHYLOCOCCUS AUREUS ATCC 6538P; assay: In vitro antibacterial activity, MIC, BHI agar dilution; conditions: S. aureus ATCC 6538P, 35-37° C., 20 to 24 hours
[2] = system: STAPHYLOCOCCUS AUREUS A5177; assay: as above
[3] = system: STAPHYLOCOCCUS AUREUS A-5278; assay: as above; conditions: S. aureus A-5278, unit assumed
[4] = system: STAPHYLOCOCCUS AUREUS CMX 642A; assay: as above; conditions: S. aureus CMX 642A, unit assumed
[5] = system: STAPHYLOCOCCUS AUREUS NCTC10649M; assay: as above; conditions: S. aureus NCTC10649M
[6] = system: STAPHYLOCOCCUS AUREUS CMX 553; assay: as above
[7] = system: STAPHYLOCOCCUS AUREUS 1775; assay: as above; conditions: S. aureus 1775, unit assumed
[8] = system: STAPHYLOCOCCUS EPIDERMIDIS 3519; conditions: S. epidermidis 3519; BHI agar; unit assumed
EN[…] ATCC 8043 = assay: In vitro antibacterial activity, MIC, BHI agar dilution; conditions: E. faecium ATCC 8043, unit assumed
Description: (§1) Representative compounds of the present invention were assayed in vitro for antibacterial activity as follows: Twelve petri dishes containing successive aqueous dilutions of the test compound mixed with 10 mL of sterilized Brain Heart Infusion (BHI) agar (Difco 0418-01-5) were prepared. Each plate was inoculated with 1:100 (or 1:10 for slow-growing strains, such as Micrococcus and Streptococcus) dilutions of up to 32 different microorganisms, using a Steers replicator block. The inoculated plates were incubated at 35-37° C. for 20 to 24 hours. In addition, a control plate, using BHI agar containing no test compound, was prepared and incubated at the beginning and end of each test.
(§2) An additional plate containing a compound having known susceptibility patterns for the organisms being tested and belonging to the same antibiotic class as the test compound was also prepared and incubated as a further control, as well as to provide test-to-test comparability. Erythromycin A was used for this purpose.
(§3) After incubation, each plate was visually inspected. The minimum inhibitory concentration (MIC) was defmed as the lowest concentration of drug yielding no growth, a slight haze, or sparsely isolated colonies on the inoculum spot as compared to the growth control.

M[…] ATCC 4698 = assay: as above; conditions: M. luteus ATCC 4698, unit assumed
Description: as §1, §2, §3

M[…] ATCC 9341 = assay: as above
Description: as §1, §2, §3

STR[…] 508 = assay: as above; conditions: S. agalactiae CMX 508, unit assumed
Description: as §1, §2, §3

[9] = system: STREPTOCOCCUS BOVIS A-5169; assay: as above
[10] = system: STREPTOCOCCUS PYOGENES EES61; assay: as above; conditions: S. pyogenes EES61, unit assumed
[11] = system: STREPTOCOCCUS PYOGENES 930; assay: as above
ESCHERICHIA COLI JUHL = conditions: E. coli JUHL; BHI agar; unit assumed
ESCHERICHIA COLI DC-2 = assay: In vitro antibacterial activity, MIC, BHI agar dilution
ESCHERICHIA COLI H560 = assay: as above; conditions: E. coli H560, unit assumed
ESCHERICHIA COLI KNK 437 = conditions: E. coli KNK 437, BHI agar, unit assumed
[12] = system: ENTEROBACTER AEROGENES ATCC 13048; assay: In vitro antibacterial activity, MIC, BHI agar dilution
[13] = system: KLEBSIELLA PNEUMONIAE ATCC 8045; assay: as above
[14] = system: PROVIDENCIA STUARTII CMX 640; conditions: P. stuartii CMX 640; BHI agar; unit assumed
[15] = system: PSEUDOMONAS AERUGINOSA BMH10; assay: In vitro antibacterial activity, MIC, BHI agar dilution
[16] = system: PSEUDOMONAS AERUGINOSA 5007; assay: as above
[17] = system: PSEUDOMONAS AERUGINOSA K799/WT; assay: as above; conditions: P. aeruginosa K799/WT
[18] = system: PSEUDOMONAS AERUGINOSA K799/61; assay: as above; conditions: P. aeruginosa K799/61, unit assumed
PSEUDOMONAS CEPACIA 296I = assay: as above; conditions: P. cepacia 296I
[19] = system: PSEUDOMONAS AERUGINOSA DPHD-5263; assay: as above; conditions: P. aeruginosa DPHD-5263, unit assumed
[20] = system: PSEUDOMONAS AERUGINOSA DPHD-2862; assay: as above; conditions: P. aeruginosa DPHD-2862, unit assumed
CANDIDA ALBICANS CCH 442 = assay: as above
[21] = system: STREPTOCOCCUS PYOGENES PIU 2548; assay: as above; conditions: S. pyogenes PIU 2548, unit assumed
[22] = system: MYCOBACTERIUM SMEGMATIS ATCC 114; assay: as above; conditions: M. smegmatis ATCC 114, unit assumed

`CC[C@H]1OC(=O)[C@H](C)C(=O)[C@H](C)[C@@H](O[C@@H]2O[C@H](C)C[C@H](N(C)C)[C@H]2O)[C@](C)(OC)C[C@@H](C)C2=N[C@@H](Cc3ccccc3)CN3C(=O)O[C@@]1(C)[C@H]3[C@H]2C` [Example 4] was tested, and the MIC ([1]; unit assumed) was 0.2 µg/mL (≈ 0.275 µM), the MIC ([2]; S. aureus A5177, unit assumed) was 0.2 µg/mL (≈ 0.275 µM) and the MIC [3] was > 100 µg/mL. It also gave an MIC [4] of 0.78 µg/mL (≈ 1.07 µM), an MIC ([5]; unit assumed) of 0.78 µg/mL (≈ 1.07 µM) and an MIC ([6]; S. aureus CMX 553, unit assumed) of 0.78 µg/mL (≈ 1.07 µM). The MIC [7] was > 100 µg/mL, the MIC [8] was 0.78 µg/mL (≈ 1.07 µM) and the MIC (EN[…] ATCC 8043) was 0.1 µg/mL (≈ 0.137 µM). For the same compound, the MIC (M[…] ATCC 4698) was 0.39 µg/mL (≈ 0.536 µM), the MIC (M[…] ATCC 9341; M. luteus ATCC 9341, unit assumed) was 0.1 µg/mL (≈ 0.137 µM) and the MIC (STR[…] 508) was 0.005 µg/mL (≈ 0.00687 µM). The MIC ([9]; S. bovis A-5169, unit assumed) was 0.02 µg/mL (≈ 0.0275 µM), the MIC [10] was 0.05 µg/mL (≈ 0.0687 µM) and the MIC ([11]; S. pyogenes 930, unit assumed) was > 100 µg/mL. For the same compound, the MIC (ESCHERICHIA COLI JUHL) was > 100 µg/mL, the MIC (ESCHERICHIA COLI DC-2; E. coli DC-2, unit assumed) was 100 µg/mL (≈ 137 µM) and the MIC (ESCHERICHIA COLI H560) was 25 µg/mL (≈ 34.3 µM). The MIC (ESCHERICHIA COLI KNK 437) was > 100 µg/mL, the MIC ([12]; E. aerogenes ATCC 13048, unit assumed) was 100 µg/mL (≈ 137 µM) and the MIC ([13]; K. pneumoniae ATCC 8045, unit assumed) was > 100 µg/mL. For the same compound, the MIC [14] was > 100 µg/mL, the MIC ([15]; P. aeruginosa BMH10, unit assumed) was > 100 µg/mL and the MIC ([16]; P. aeruginosa 5007, unit assumed) was > 100 µg/mL. For the same compound, the MIC ([17]; unit assumed) was > 100 µg/mL, the MIC [18] was 1.56 µg/mL (≈ 2.14 µM) and the MIC (PSEUDOMONAS CEPACIA 296I; unit assumed) was > 100 µg/mL. The MIC [19] was > 100 µg/mL, the MIC [20] was > 100 µg/mL and the MIC (CANDIDA ALBICANS CCH 442; C. albicans CCH 442, unit assumed) was 100 µg/mL (≈ 137 µM).

`CC[C@H]1OC(=O)[C@H](C)C(=O)[C@H](C)[C@@H](O[C@@H]2O[C@H](C)C[C@H](N(C)C)[C@H]2O)[C@](C)(OC)C[C@@H](C)C2=NC3CN(CCCc4ccccc4)CC3N3C(=O)O[C@@]1(C)[C@H]3[C@H]2C` (stereo partly drawn) [Example 112] showed an MIC ([1]; listed as Ex 112, unit assumed) of 0.39 µg/mL (≈ 0.489 µM), an MIC ([2]; S. aureus A5177, listed as Ex 112, unit assumed) of 0.39 µg/mL (≈ 0.489 µM) and an MIC [4] of 0.78 µg/mL (≈ 0.979 µM). The MIC ([5]; listed as Ex 112, unit assumed) was 0.78 µg/mL (≈ 0.979 µM), the MIC ([6]; S. aureus CMX 553, listed as Ex 112, unit assumed) was 0.78 µg/mL (≈ 0.979 µM) and the MIC [8] was 0.78 µg/mL (≈ 0.979 µM). It also gave an MIC (M[…] ATCC 4698) of 0.2 µg/mL (≈ 0.251 µM), an MIC (M[…] ATCC 9341; M. luteus ATCC 9341, listed as Ex 112, unit assumed) of 0.1 µg/mL (≈ 0.125 µM) and an MIC (STR[…] 508) of 0.02 µg/mL (≈ 0.0251 µM). The MIC ([9]; S. bovis A-5169, listed as Ex 112, unit assumed) was ≤ 0.005 µg/mL, the MIC ([11]; S. pyogenes 930, listed as Ex 112, unit assumed) was > 100 µg/mL and the MIC [21] was 0.2 µg/mL (≈ 0.251 µM). The MIC (ESCHERICHIA COLI DC-2; E. coli DC-2, listed as Ex 112, unit assumed) was > 100 µg/mL, the MIC (ESCHERICHIA COLI H560) was 50 µg/mL (≈ 62.7 µM) and the MIC (ESCHERICHIA COLI KNK 437; listed as Ex 112) was 100 µg/mL (≈ 125 µM). The MIC ([12]; E. aerogenes ATCC 13048, listed as Ex 112, unit assumed) was 100 µg/mL (≈ 125 µM), the MIC ([13]; K. pneumoniae ATCC 8045, listed as Ex 112, unit assumed) was 100 µg/mL (≈ 125 µM) and the MIC ([15]; P. aeruginosa BMH10, listed as Ex 112, unit assumed) was 100 µg/mL (≈ 125 µM). For the same compound, the MIC ([16]; P. aeruginosa 5007, listed as Ex 112, unit assumed) was > 100 µg/mL, the MIC ([17]; listed as Ex 112, unit assumed) was > 100 µg/mL and the MIC [18] was 0.78 µg/mL (≈ 0.979 µM). It also gave an MIC (PSEUDOMONAS CEPACIA 296I; listed as Ex 112, unit assumed) of 100 µg/mL (≈ 125 µM), an MIC (CANDIDA ALBICANS CCH 442; C. albicans CCH 442, listed as Ex 112, unit assumed) of 100 µg/mL (≈ 125 µM) and an MIC [22] of 0.39 µg/mL (≈ 0.489 µM).
